Drawing on ChEMBL document CHEMBL5291721, “A preclinical secondary pharmacology resource illuminates target-adverse drug reaction associations of marketed drugs” (Nat Commun, 2023), this text covers AC50 for 25 compounds.

The target in assay [1] is T1, Amine oxidase [flavin-containing] A (Homo sapiens, UniProt P21397).
T1 sequence (P21397 whole entry): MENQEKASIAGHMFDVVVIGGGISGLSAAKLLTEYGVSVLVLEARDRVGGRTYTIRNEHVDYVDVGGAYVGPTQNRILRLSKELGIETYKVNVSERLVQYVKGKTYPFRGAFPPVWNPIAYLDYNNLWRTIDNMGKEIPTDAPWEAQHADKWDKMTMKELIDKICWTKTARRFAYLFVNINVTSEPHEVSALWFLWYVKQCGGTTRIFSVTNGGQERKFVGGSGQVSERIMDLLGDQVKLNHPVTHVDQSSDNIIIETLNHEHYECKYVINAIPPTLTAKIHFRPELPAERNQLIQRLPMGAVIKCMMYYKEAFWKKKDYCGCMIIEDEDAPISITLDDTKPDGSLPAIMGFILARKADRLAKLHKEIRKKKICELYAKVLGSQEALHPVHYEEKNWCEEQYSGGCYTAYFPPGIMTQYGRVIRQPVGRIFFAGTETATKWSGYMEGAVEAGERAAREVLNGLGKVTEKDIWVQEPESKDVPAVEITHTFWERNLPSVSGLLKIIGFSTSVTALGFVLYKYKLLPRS
The format is functional.

A further assay concerns the target T2, Thromboxane A2 receptor (Homo sapiens, UniProt P21731).
T2 sequence (P21731 whole entry): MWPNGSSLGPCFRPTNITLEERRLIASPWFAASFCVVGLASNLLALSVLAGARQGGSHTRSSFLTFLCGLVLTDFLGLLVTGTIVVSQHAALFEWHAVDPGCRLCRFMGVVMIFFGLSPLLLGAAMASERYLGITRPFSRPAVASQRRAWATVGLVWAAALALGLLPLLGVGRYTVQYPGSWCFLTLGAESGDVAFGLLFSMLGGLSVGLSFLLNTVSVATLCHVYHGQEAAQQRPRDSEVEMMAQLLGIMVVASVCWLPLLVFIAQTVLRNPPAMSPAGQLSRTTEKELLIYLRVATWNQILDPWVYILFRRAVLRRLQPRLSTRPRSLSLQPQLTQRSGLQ

The target of another assay is Cannabinoid receptor 1 (Homo sapiens, UniProt P21554). In kind it is functional, cell-based.
Assay [2] has as its target T3, Gamma-aminobutyric acid receptor subunit alpha-1 (Rattus norvegicus, UniProt P62813).
Another assay concerns the target D(3) dopamine receptor (Homo sapiens, UniProt P35462).
A further assay has as its target T4, Estrogen receptor (Homo sapiens, UniProt P03372).
T4 sequence (P03372 whole entry): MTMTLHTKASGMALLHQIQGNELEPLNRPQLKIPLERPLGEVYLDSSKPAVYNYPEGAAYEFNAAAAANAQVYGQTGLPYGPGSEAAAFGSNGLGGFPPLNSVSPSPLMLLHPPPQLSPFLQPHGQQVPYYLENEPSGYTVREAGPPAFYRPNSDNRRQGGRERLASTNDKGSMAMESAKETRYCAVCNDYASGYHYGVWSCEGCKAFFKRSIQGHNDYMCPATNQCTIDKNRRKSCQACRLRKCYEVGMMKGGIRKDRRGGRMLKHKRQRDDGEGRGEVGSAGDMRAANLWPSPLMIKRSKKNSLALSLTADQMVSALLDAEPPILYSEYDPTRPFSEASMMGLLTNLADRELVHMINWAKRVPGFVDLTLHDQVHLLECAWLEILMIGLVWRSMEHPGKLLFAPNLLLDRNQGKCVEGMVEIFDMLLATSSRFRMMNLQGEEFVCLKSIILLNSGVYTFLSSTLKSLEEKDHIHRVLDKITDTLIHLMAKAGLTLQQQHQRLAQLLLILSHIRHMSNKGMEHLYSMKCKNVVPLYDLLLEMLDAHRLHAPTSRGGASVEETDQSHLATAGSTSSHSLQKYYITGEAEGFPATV

Assay [3] concerns the target T3, Gamma-aminobutyric acid receptor subunit alpha-1. The source holds these as a separate data set.
The target in the next assay is D(1A) dopamine receptor (Homo sapiens, UniProt P21728). In kind it is functional, cell-based.
Assay [4] deals with Vascular endothelial growth factor receptor 2 (Homo sapiens, UniProt P35968). The format is functional.
A further assay concerns the target T5, Endothelin-1 receptor (Homo sapiens, UniProt P25101).
T5 sequence (P25101 whole entry): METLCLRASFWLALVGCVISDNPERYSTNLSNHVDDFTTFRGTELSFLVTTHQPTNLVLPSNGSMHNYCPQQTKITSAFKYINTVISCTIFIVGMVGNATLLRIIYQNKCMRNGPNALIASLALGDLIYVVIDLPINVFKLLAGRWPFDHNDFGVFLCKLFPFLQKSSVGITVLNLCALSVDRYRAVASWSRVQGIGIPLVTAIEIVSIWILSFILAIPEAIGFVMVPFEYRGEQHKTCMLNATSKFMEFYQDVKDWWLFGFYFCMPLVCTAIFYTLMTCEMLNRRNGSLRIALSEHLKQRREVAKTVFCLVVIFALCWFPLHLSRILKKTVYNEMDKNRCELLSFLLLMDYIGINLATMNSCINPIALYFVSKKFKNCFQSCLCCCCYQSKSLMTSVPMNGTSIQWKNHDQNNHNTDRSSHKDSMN

The target of assay [5] is T6, Gastrin/cholecystokinin type B receptor (Homo sapiens, UniProt P32239).
T6 sequence (P32239 whole entry): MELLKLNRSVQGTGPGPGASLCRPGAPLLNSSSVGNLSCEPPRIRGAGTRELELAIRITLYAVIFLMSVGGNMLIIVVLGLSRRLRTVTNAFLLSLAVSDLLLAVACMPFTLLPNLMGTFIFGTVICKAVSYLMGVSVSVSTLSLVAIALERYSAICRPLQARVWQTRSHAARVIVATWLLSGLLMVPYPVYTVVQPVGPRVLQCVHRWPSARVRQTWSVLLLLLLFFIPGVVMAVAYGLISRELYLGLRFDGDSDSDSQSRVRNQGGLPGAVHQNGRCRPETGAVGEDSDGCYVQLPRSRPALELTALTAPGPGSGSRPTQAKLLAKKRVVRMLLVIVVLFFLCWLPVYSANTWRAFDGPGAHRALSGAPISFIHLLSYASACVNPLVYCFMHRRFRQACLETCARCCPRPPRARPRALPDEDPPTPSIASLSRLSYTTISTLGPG
Also: assay procedure not described here.

Vascular endothelial growth factor receptor 2, sequence (P35968 whole entry): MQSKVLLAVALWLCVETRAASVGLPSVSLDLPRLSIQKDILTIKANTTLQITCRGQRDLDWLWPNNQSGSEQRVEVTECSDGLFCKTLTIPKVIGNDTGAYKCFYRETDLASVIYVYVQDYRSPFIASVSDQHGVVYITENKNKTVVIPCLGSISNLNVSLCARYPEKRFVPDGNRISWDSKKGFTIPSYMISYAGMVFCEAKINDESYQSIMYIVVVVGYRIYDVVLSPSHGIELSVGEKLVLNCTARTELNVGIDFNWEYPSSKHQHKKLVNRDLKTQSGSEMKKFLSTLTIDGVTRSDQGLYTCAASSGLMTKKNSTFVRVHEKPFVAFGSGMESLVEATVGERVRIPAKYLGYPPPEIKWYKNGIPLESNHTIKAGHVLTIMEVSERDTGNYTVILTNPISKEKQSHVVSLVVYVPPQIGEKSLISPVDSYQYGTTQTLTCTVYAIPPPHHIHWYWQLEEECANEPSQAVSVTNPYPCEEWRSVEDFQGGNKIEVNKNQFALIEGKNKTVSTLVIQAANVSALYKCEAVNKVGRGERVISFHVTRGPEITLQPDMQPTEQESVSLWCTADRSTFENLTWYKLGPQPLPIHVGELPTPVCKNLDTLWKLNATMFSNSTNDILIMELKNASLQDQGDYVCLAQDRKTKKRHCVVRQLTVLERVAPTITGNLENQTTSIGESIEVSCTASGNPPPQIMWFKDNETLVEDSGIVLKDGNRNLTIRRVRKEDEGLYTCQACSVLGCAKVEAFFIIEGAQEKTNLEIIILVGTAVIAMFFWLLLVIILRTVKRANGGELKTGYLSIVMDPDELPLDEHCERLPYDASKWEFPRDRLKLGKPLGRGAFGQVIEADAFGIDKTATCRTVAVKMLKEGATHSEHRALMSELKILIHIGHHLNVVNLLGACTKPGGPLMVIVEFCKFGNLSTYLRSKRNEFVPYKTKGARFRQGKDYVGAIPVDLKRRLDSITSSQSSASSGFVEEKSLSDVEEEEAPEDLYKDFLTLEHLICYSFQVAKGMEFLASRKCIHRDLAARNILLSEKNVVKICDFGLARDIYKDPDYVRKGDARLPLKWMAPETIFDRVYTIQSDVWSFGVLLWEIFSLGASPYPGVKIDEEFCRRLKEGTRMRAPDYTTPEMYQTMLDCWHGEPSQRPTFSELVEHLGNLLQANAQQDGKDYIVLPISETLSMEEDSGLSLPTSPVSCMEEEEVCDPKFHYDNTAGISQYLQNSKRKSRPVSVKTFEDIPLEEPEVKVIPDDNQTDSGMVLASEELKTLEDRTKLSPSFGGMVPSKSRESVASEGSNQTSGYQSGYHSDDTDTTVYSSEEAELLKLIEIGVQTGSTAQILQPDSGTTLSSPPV
D(1A) dopamine receptor, sequence (P21728 whole entry): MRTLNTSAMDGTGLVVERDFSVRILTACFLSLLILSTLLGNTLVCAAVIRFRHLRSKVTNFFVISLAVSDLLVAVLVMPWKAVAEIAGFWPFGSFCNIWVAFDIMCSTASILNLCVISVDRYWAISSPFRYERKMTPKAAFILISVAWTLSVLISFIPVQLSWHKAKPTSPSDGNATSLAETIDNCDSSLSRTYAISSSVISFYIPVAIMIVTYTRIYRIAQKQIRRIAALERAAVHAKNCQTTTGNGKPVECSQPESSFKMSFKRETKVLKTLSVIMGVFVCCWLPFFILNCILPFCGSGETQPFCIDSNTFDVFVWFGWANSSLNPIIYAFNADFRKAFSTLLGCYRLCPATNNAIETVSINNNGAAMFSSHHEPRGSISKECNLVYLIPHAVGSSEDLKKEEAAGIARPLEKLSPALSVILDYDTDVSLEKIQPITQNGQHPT
T3 sequence (P62813 whole entry): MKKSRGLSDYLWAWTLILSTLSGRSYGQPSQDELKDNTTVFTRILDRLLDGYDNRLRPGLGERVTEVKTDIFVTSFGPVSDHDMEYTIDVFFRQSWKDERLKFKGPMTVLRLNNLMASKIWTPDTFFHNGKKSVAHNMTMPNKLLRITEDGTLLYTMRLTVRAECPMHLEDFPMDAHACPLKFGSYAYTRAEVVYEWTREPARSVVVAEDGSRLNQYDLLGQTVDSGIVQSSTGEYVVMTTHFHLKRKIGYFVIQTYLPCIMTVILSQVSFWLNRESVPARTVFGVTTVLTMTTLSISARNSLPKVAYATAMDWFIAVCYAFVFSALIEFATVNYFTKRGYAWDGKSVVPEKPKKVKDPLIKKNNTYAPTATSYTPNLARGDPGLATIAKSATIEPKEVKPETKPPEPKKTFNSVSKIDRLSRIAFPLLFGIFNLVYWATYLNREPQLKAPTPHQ
Cannabinoid receptor 1, sequence (P21554 whole entry): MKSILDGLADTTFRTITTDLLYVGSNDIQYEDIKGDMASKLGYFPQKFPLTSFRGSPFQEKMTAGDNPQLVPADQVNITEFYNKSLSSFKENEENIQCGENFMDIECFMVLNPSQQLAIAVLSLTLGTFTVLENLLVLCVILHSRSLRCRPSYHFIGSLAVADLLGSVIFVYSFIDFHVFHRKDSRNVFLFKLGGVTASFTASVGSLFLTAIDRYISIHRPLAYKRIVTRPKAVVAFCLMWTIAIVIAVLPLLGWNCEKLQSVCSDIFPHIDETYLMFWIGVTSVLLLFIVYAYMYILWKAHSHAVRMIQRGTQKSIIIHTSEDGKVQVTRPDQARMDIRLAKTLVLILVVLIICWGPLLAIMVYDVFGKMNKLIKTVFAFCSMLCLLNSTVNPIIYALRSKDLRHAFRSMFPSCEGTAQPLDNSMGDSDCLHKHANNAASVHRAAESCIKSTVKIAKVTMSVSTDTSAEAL
D(3) dopamine receptor, sequence (P35462 whole entry): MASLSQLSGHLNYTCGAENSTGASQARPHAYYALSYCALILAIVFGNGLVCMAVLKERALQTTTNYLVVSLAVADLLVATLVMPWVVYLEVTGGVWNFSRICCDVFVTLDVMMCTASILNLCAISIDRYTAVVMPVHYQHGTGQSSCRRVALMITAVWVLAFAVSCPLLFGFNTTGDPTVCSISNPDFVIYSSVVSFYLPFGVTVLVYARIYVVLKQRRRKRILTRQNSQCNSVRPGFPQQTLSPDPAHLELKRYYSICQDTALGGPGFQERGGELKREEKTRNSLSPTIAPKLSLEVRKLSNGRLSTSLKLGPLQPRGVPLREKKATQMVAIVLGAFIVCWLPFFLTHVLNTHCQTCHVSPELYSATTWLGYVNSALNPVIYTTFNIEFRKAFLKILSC

The term AC50 denotes the midpoint of the concentration-response curve, whichever way the signal moves. The low end stands for activity at low concentration, the high end for activity only at high concentration. With `CC(C)C[C@H](NC(=O)[C@@H](O)[C@H](N)Cc1ccccc1)C(=O)O` [UBENIMEX], the concentration at half-maximal activity (AC50) (in assay [1]; on Thromboxane A2 receptor; at Cannabinoid receptor 1; in assay [2]; at D(3) dopamine receptor; on Estrogen receptor) was above 30 µM throughout. Further, the AC50 (in assay [3]; on D(1A) dopamine receptor) was above 30 µM throughout.

In the case of `CC[C@]12CCCN3CCc4c(n(c5ccccc45)[C@@](O)(C(=O)OC)C1)[C@@H]32` [VINCAMINE], the AC50 in assay [2] and in [4] was above 30 µM throughout.

Consider `COc1c2occc2c(OC)c2c(=O)cc(C)oc12` [KHELLIN], for which the AC50 in assay [2] and in assay [4] was above 30 µM in each case.

For `O=C(O)P(=O)(O)O` [FOSCARNET], the AC50 in [2] and in assay [4] was above 30 µM each time.

Turning to `O=C(NNCS(=O)(=O)O)c1ccncc1` [METHANIAZIDE], the AC50 (in assay [2]; at Estrogen receptor; in [4]) was above 30 µM in each case.

For `O=C(O)c1ccccc1` [BENZOIC ACID], the AC50 (in [2]; on Estrogen receptor; in assay [4]) was above 30 µM in each case.

With `CC(C)C(=O)Oc1ccc(CO)cc1[C@H](CCN(C(C)C)C(C)C)c1ccccc1` [FESOTERODINE], the half-maximal activity concentration (AC50) (in assay [2]; at Estrogen receptor) was above 30 µM each time.

As to `CCCCC1C(=O)N(c2ccccc2)N(c2ccc(O)cc2)C1=O` (stereo not drawn) [OXYPHENBUTAZONE ANHYDROUS], the AC50 in [2] and in assay [4] was above 30 µM in each case.

Turning to `CC(C)NC(=N)NC(=N)Nc1ccc(Cl)c(Cl)c1` [CHLORPROGUANIL], the AC50 (in [1]; on Cannabinoid receptor 1; in assay [2]; on D(3) dopamine receptor; at Estrogen receptor; in [3]) was above 30 µM throughout. The compound further yielded an AC50 on D(1A) dopamine receptor above 30 µM.

Take `C[C@]12C=CC(=O)C=C1CC[C@H]1[C@@H]3C[C@@H](O)[C@](O)(C(=O)CO)[C@@]3(C)C[C@H](O)[C@@]12F` [TRIAMCINOLONE]: the AC50 (in assay [2]; at Estrogen receptor; in assay [4]) was above 30 µM each time.

Consider `C[Se]CC[C@H](N)C(=O)O` [SELENOMETHIONINE], for which the AC50 (in assay [2]; on Estrogen receptor; in assay [4]) was above 30 µM throughout.

Take `CC(CN1c2ccccc2Sc2ccccc21)N(C)C` (stereo not drawn) [PROMETHAZINE]: the AC50 is above 30 µM on Endothelin-1 receptor; above 10 µM in assay [1]; above 30 µM on Thromboxane A2 receptor; above 30 µM on Cannabinoid receptor 1; above 30 µM in assay [2]; 0.28 µM at D(3) dopamine receptor. The concentration at half-maximal activity (AC50) is above 30 µM in assay [5], above 10 µM in [3] and above 10 µM on D(1A) dopamine receptor.

Turning to `COc1cc(C(C)=O)ccc1OCCCN1CCC(c2noc3cc(F)ccc23)CC1` [ILOPERIDONE], the concentration at half-maximal activity (AC50) on Endothelin-1 receptor was above 30 µM; in assay [1], above 30 µM; on Cannabinoid receptor 1, above 30 µM; in assay [2] it was above 30 µM; on D(3) dopamine receptor, 0.0373 µM; in [5] it was 9.33 µM. For the same compound, the half-maximal activity concentration (AC50) on Estrogen receptor and on D(1A) dopamine receptor was above 30 µM each time.

Take `C=CC(=O)Nc1cccc(Oc2nc(Nc3ccc(N4CCN(C)CC4)cc3)nc3ccsc23)c1` [OLMUTINIB]: the AC50 in assay [2] is above 30 µM; at Estrogen receptor it was 28.6 µM; in assay [4] it was 2.06 µM.

`CCCCC(CC)CN1CN(CC(CC)CCCC)CC(C)(N)C1` (stereo not drawn) [HEXETIDINE]: the half-maximal activity concentration (AC50) (in [2]; at Estrogen receptor; in [4]) was above 30 µM throughout.

With `C[N+](C)(CCCCCC[N+](C)(C)C1c2ccccc2-c2ccccc21)C1c2ccccc2-c2ccccc21` [HEXAFLUORENIUM], the AC50 (in assay [2]; on Estrogen receptor; in assay [4]) was above 30 µM each time.

For the compound `COc1ccccc1OC1(C)OC(=O)c2ccccc2O1` (stereo not drawn) [GUAIMESAL], the AC50 (on Endothelin-1 receptor; at Thromboxane A2 receptor; in assay [2]; in assay [5]; on Estrogen receptor) was above 30 µM each time.

With `COC(=O)[C@@H](N)Cc1ccc(O)c(O)c1` [MELEVODOPA], the AC50 in assay [2] and in assay [4] was above 30 µM each time.

With `O=C(O)CN(CCN(CC(=O)O)CC(=O)O)CCN(CC(=O)O)CC(=O)O` [PENTETIC ACID], the AC50 in assay [2] and in [4] was above 30 µM each time.

Take `C[N+](C)(C)CCOP(=O)(O)OP(=O)([O-])OC[C@H]1O[C@@H](n2ccc(N)nc2=O)[C@H](O)[C@@H]1O` [CITICOLINE]: the AC50 (in assay [1]; at Cannabinoid receptor 1; in [2]; at D(3) dopamine receptor; at Estrogen receptor; in [3]) was above 30 µM throughout. The compound further registered an AC50 on D(1A) dopamine receptor above 30 µM.

Turning to `C=N[C@@H](C(=O)N[C@@H]1C(=O)N2[C@@H]1SC(C)(C)[C@@H]2C(=O)O)c1ccccc1` [METAMPICILLIN], the AC50 in assay [2] and in assay [4] was above 30 µM each time.

In the case of `CC[C@H]1OC(=O)[C@H](C)[C@@H](O[C@H]2C[C@@](C)(OC)[C@@H](O)[C@H](C)O2)[C@H](C)[C@@H](O[C@@H]2O[C@H](C)C[C@H](N(C)C)[C@H]2O)[C@](C)(O)C[C@@H](C)[C@@H]2N[C@@H](COCCOC)O[C@H]([C@H]2C)[C@]1(C)O` [DIRITHROMYCIN], the AC50 (in [2]; on Estrogen receptor) was above 30 µM each time.

Consider `C#C[C@]1(O)C=C[C@H]2[C@@H]3CCC4=CC(=O)CC[C@@H]4[C@H]3CC[C@@]21CC` [GESTODENE], for which the AC50 in [2] came to 2.16 µM; on Estrogen receptor, 1.2 µM.

For `CN[C@@H]1[C@H](O[C@H]2[C@H](O[C@H]3[C@H](O)[C@@H](O)[C@H](NC(=N)N)[C@@H](O)[C@@H]3NC(=N)N)O[C@@H](C)[C@]2(O)CO)O[C@@H](CO)[C@H](O)[C@H]1O` [DIHYDROSTREPTOMYCIN], the AC50 in [2] was above 30 µM.

Regarding `Nc1c(CC(=O)O)cccc1C(=O)c1ccc(Br)cc1` [BROMFENAC], the AC50 (in assay [2]; on Estrogen receptor) was above 30 µM in each case.
